According to PMC12474366, “Metabolic Profiling, Tissue Distribution, and Tolerance Assessment of Bopu Powder in Laying Hens Following Long-Term Dietary Administration” (Veterinary Sciences, 2025):
Several values for one entry are separate records, joined by “and”; a condition that tells them apart may be missing. Equal values may be shown once. Read-outs that look alike come from different tables or passages of the source.

How the values were obtained:
[1] = rat liver S9 fractions; cited from earlier work
[2] = cited from earlier work
[3] = Metabolite identification in plasma and feces after intravenous PRO or ALL (LC-Q-TOF-MS)
Description: (§1) Nine hens were allocated to the metabolic study. These birds were randomly divided into three groups (n = 3 per group): the blank control group, the PRO group, and the ALL group.
(§2) Plasma: Blood samples were collected from the subcutaneous ulnar vein at 5, 10, 20, 30, 60, and 120 min post-administration. Samples were centrifuged at 4 °C and 3200× g for 10 min. The supernatant (plasma) was collected and stored at −80 °C for subsequent metabolite analysis.
(§3) Feces: Feces were collected over the intervals 0–6 h, 6–12 h, 12–24 h, and 24–48 h following intravenous administration. All fecal samples were immediately stored at −80 °C.
(§4) Plasma: Plasma samples stored at −80 °C were thawed at room temperature. A pooled plasma sample was prepared by combining equal volumes of plasma from each designated collection timepoint. A 200 μL aliquot of this pooled plasma was precisely transferred into a 1.5 mL microcentrifuge tube. Subsequently, 800 μL of acetonitrile was added to precipitate proteins, and the mixture was vortex-mixed vigorously for 2 min. Following protein precipitation, the tube was sealed and sonicated for 20 min. The sample was then centrifuged at 12,000× g for 10 min. The resulting supernatant was carefully collected and evaporated to dryness under a gentle stream of nitrogen at room temperature. The dried residue was reconstituted in 200 μL of acetonitrile, vortex-mixed for 2 min, and centrifuged again at 12,000× g for 5 min. Finally, the supernatant was filtered through a 0.22 μm organic membrane filter prior to LC-MS/MS analysis.
(§5) Feces: Fecal samples stored at −80 °C were thawed at room temperature and homogenized. A 2.00 g aliquot of the homogenized feces was accurately weighed into a 50 mL centrifuge tube. Ten milliliters of acetonitrile, serving as the extraction solvent, was added to the sample, which was then vortex-mixed for 5 min. The tube was sealed and subjected to sonication for 20 min.

[4] = set-up: method as in PMID 39805195; settings: broiler hepatic microsomes, stable isotope tracing; cited from earlier work
[5] = cited from earlier work; remark: listed apart in the source
[6] = Residues of PRO and ALL in laying hens' tissues and eggs after 56-day dietary Bopu Powder (LC-QQQ-MS); settings: mean ± sd; for concentration at 56 days: female, Roman Gray, chicken (laying hens), in vivo, n = 6, LOD 1 ng/g wet weight
Description: Throughout the experimental period, the hens were housed in cages under standard laboratory conditions, with ad libitum access to feed and water. Following a 7-day acclimatization period, standardized feeding regimens and routine health management procedures, including biosecurity protocols, were implemented. […] Three experimental groups were established: CN (control, no additive), BP (50 mg/kg additive), and BPX (500 mg/kg additive). The study employed a randomized design with 6 replicates per group and 18 hens per replicate. The feeding trial duration was 56 days.
Additionally, at the end of week 8, from each replicate group, one hen was randomly selected. A 10 mL blood sample was collected from the subcutaneous ulnar vein; 5 mL was transferred into an EDTA-K2 anticoagulant tube, gently mixed, and centrifuged at 3000× g for 10 min. The separated plasma was transferred into EP tubes (Eppendorf tubes) and stored at −20 °C for residue analysis.
Eggs: During weeks 4 and 8 of the trial, two eggs per replicate group, approximating the mean egg weight, were collected and stored at 4 °C until analysis.
Segments of jejunum, ileum, liver, ovary, oviduct, uterus, pectoral muscle, thigh muscle, gizzard, abdominal fat, and subcutaneous fat were individually wrapped in aluminum foil, flash-frozen in liquid nitrogen, and stored at −80 °C pending analysis.
Eggs: Two grams of homogenized whole egg liquid was transferred into a 50 mL centrifuge tube containing homogenization beads. Twenty microliters of the 1 mg/L internal standard (IS) working solution was precisely added, followed by vortex mixing for 30 s. Subsequently, 10 mL of acetonitrile was added and the mixture was vortex-mixed for 5 min to facilitate extraction. The sample was then centrifuged at 8000× g for 5 min. Five milliliters of the resulting supernatant was transferred to a ten-milliliter centrifuge tube, combined with three milliliters of n-hexane, and vortex-mixed for 1 min. After phase separation, the upper n-hexane layer was carefully removed using a rubber-bulb pipette. Then, 1 mL of the lower aqueous acetonitrile phase was collected, evaporated to dryness under a nitrogen stream, and reconstituted in 0.5 mL of acetonitrile with 30 s of vortex mixing. The final extract was filtered through a 0.22 μm organic solvent-compatible membrane prior to LC-MS/MS analysis. Only two quality control (QC) measures were implemented: parallel duplicate samples, and blank/carryover checks.
Tissues: Tissue samples stored at −80 °C were thawed to room temperature. Approximately 2 g of tissue was weighed into a 50 mL screw-cap centrifuge tube. Twenty microliters of freshly prepared 20 mg·L^−1 IS solution and 1 mL of physiological saline were added.

[7] = set-up: method as in doi:10.19378/j.issn.1003-9783.2020.12.010; settings: rats, oral administration of ALL; cited from earlier work
[8] = porcine liver S9 fractions; cited from earlier work
[9] = test system: carbon tetrachloride, acetaminophen, and simvastatin-induced hepatotoxicity; set-up: method as in PMID 9782072; settings: PRO 11–22 mg/kg body weight; cited from earlier work
[10] = rat, in vivo; cited from earlier work
[11] = in vivo, iv, 1 mg/kg
Description: as §1, §2, §3, §4, §5

[12] = BPX group: 500 mg/kg Bopu Powder in diet, 56 days, n = 6, LOD 1 ng/g wet weight

Compound: COc1ccc2c(c1OC)CN(C)CCc1cc3c(cc1C(=O)C2)OCO3 [ALL, allocryptopine]
- number of metabolites detected [1]: eight
- residues in eggs throughout ([2]; 400 mg/kg feed Bopu Powder, 7 days): undetectable
- residual levels 1 day after withdrawal ([2]; 2000 mg/kg feed Bopu Powder, 7 days): 8.61 µg/kg
- residues 7 days post-withdrawal ([2]; 2000 mg/kg feed Bopu Powder): residues persisted
- number of metabolites detected in pooled plasma ([3]; intravenous 1 mg/kg bw, pooled plasma 5 to 120 min post-administration): seven
- number of metabolites identified in plasma and feces ([3]; intravenous 1 mg/kg·bw, blood 5–120 min, feces 48 h collection): 9
- number of key metabolites identified [4]: five
- residues in urine, feces, plasma, and various tissues ([5]; rats, following ALL administration): < 3 ng/g
- residues in kidney ([6]; BP group: 50 mg/kg Bopu Powder in diet, 56 days, n = 6, LOD 1 ng/g wet weight): 6.59 ± 4.61 ng/g
- residues in eggs [6, 12]: 12.29 ng/g and 12.29 ± 4.69 ng/g
- residues in kidney [6, 12]: 7.92 ± 4.12 ng/g
- residues in liver [6, 12]: 56.14 ± 9.39 ng/g
- concentration at 56 days ([6]; 50 mg/kg, residues in kidney, BP group: 50 mg/kg Bopu Powder in diet): 6.59 ng/g
- concentration at 56 days ([6]; 500 mg/kg, residues in kidney, BPX group: 500 mg/kg Bopu Powder in diet): 7.92 ng/g
- concentration at 56 days ([6]; 500 mg/kg, residues in liver, BPX group: 500 mg/kg Bopu Powder in diet): 56.1 ng/g
- number of metabolites identified, including isomers [7]: 25
- number of metabolites detected [8]: four

Compound: protopine
- hepatoprotective effect [9]: effectively counteracts carbon tetrachloride, acetaminophen, and simvastatin-induced hepatotoxicity
- highest residual level, liver at 48 h ([5]; rat, in vivo): 20.64 ng/g
- highest residual level, spleen at 24 h ([5]; rat, in vivo): 44.04 ng/g
- highest residue level, liver at 48 h (second statement) ([5]; rat, in vivo): 61.8 ng/g
- residue levels in other tissues (second statement) ([5]; rat, in vivo): below 6.5 ng/g
- time until concentrations fell below LOQ (10 ng/mL) [10]: ≤ 8 h
- number of metabolites detected in fecal samples [11]: Eleven
- number of metabolites detected in pooled plasma [11]: two
- number of metabolites identified in plasma and feces [11]: 12
